{"source": "patent US20240376091A1", "about": "“THIADIAZOLEAMIDE DERIVATIVES AND THEIR APPLICATIONS” (ZHEJIANG UNIVERSITY, priority 2021, published 2024)", "data": [{"molecular_target": "T1, AR (Homo sapiens, UniProt P10275, T878A)", "T1 construct": "into the androgen-dependent PCa cells (LNCaP); endogenous in cells; host or cells: LNCaP-ARR2PB-eGFP", "T1 sequence (P10275 1-920 T878A)": "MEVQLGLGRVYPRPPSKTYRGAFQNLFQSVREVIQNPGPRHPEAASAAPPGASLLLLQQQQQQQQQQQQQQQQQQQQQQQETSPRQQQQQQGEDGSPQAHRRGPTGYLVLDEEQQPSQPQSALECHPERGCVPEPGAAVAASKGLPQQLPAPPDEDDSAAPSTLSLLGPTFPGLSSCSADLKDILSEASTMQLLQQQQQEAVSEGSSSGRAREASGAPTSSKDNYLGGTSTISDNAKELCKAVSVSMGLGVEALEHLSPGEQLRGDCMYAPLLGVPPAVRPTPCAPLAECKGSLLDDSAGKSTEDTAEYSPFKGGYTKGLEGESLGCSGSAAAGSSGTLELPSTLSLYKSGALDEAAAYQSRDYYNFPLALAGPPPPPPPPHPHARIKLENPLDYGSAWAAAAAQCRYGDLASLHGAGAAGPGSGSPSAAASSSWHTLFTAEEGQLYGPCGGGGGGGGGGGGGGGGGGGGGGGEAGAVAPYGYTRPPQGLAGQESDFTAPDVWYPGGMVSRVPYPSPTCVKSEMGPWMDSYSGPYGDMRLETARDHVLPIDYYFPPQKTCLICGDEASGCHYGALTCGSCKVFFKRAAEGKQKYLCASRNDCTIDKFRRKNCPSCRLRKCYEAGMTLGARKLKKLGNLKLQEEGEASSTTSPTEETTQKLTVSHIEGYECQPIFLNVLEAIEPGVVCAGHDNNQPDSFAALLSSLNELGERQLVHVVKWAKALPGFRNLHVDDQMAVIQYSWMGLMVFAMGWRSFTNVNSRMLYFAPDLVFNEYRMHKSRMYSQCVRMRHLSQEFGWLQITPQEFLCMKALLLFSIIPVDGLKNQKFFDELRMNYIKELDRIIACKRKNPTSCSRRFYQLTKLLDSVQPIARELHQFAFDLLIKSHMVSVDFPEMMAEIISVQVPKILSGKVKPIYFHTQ", "test": "AR transcriptional activity, LNCaP-ARR2PB-eGFP reporter cells", "type": "cell-based", "conditions": "read-out: IC50 AR transcriptional activities", "description": "Detection principles: We conducted a stable transfection of promoter ARR2PB known for its strong AR responsiveness, into the androgen-dependent PCa cells (LNCaP). The expression of enhanced green fluorescent protein (eGFP) is depending on the degree of activation of AR. Therefore, LNCaP-ARR2PB-eGFP cell line could quantitatively determine the AR antagonistic activities of the compounds by evaluating the expression of eGFP.", "units": {"IC50": "µM"}, "values": [{"smiles": "CCN(CC)C(C)Cc1nsc(NC(=O)c2coc(-c3cccc(C(F)(F)F)c3)c2)n1", "note": "(stereo not drawn) [Compound B-7, N-(3-(2-(diethylamino)propyl)-1,2,4-thiadiazol-5-yl)-5-(3-(trifluoromethyl)phenyl)furan-3-carboxamide]", "IC50": 15}, {"smiles": "Cc1oc(C(=O)Nc2nc(CC(C)N3CCCCC3)ns2)cc1-c1cccc(C#N)c1", "note": "(stereo not drawn) [Compound F-7, 4-(3-Cyanophenyl)-5-methyl-N-(3-(2-(piperidin-1-yl)propyl)-1,2,4-thiadiazol-5-yl)furan-2-carboxamide]", "IC50": 14}, {"smiles": "O=C(Nc1nc(CN2CCCCC2)ns1)c1csc(-c2cccc(OC(F)F)c2)c1", "note": "[Compound D-56, 5-(3-(Difluoromethoxy)phenyl)-N-(3-(piperidin-1-ylmethyl)-1,2,4-thiadiazol-5-yl)thiophene-3-carboxamide]", "IC50": 42.1}, {"smiles": "CC(Cc1nsc(NC(=O)c2csc(-c3cccc(C(F)(F)F)c3)c2)n1)N(C)C", "note": "[Compound D-6, N-(3-(2-(dimethylamino)propyl)-1,2,4-thiadiazol-5-yl)-5-(3-(trifluoromethyl)phenyl)thiophene-3-carboxamide]", "IC50": 43.8}, {"smiles": "CC(=O)Cc1nsc(NC(=O)c2cc(-c3ccc(Cl)c(Cl)c3)oc2C)n1", "note": "[Compound A-10, 5-(3,4-Dichlorophenyl)-2-methyl-N-(3-(2-oxopropyl)-1,2,4-thiadiazol-5-yl)furan-3-carboxamide]", "IC50": 1.24}, {"smiles": "CC(O)(Cc1nsc(NC(=O)c2coc(-c3cccc(C(F)(F)F)c3)c2)n1)C(F)(F)F", "note": "(stereo not drawn) [Compound B-25, N-(3-(3,3,3-trifluoro-2-hydroxy-2-methylpropyl)-1,2,4-thiadiazol-5-yl)-5-(3-(trifluoro-methyl)phenyl)furan-3-carboxamide]", "IC50": 15.5}, {"smiles": "CC(=O)Cc1nsc(NC(=O)c2csc(-c3cccc(C#N)c3)c2)n1", "note": "[Compound D-2, 5-(3-Cyanophenyl)-N-(3-(2-oxopropyl)-1,2,4-thiadiazol-5-yl)thiophene-3-carboxamide]", "IC50": 32.6}, {"smiles": "CC(O)Cc1nsc(NC(=O)c2cc(-c3cccc(C(F)(F)F)c3)co2)n1", "note": "(stereo not drawn) [Compound G-11, N-(3-(2-hydroxypropyl)-1,2,4-thiadiazol-5-yl)-4-(3-(trifluoromethyl)phenyl)furan-2-carboxamide]", "IC50": 29.3}, {"smiles": "COc1cccc(-c2cc(C(=O)Nc3nc(CC(C)N4CCCCC4)ns3)co2)c1", "note": "(stereo not drawn) [Compound B-14, 5-(3-Methoxyphenyl)-N-(3-(2-(piperidin-1-yl)propyl)-1,2,4-thiadiazol-5-yl)furan-3-carboxamide]", "IC50": 33.6}, {"smiles": "COc1cccc(-c2cc(C(=O)Nc3nc(CC(C)N4CCCC4)ns3)c(C)s2)c1", "note": "(stereo not drawn) [Compound C-14, 5-(3-Methoxyphenyl)-2-methyl-N-(3-(2-(pyrrolidin-1-yl)propyl)-1,2,4-thiadiazol-5-yl)thiophene-3-carboxamide]", "IC50": 19.4}, {"smiles": "CC(=O)Cc1nsc(NC(=O)c2cc(-c3cccc(NC(C)=O)c3)oc2C)n1", "note": "[Compound A-25, 5-(3-Acetamidophenyl)-2-methyl-N-(3-(2-oxopropyl)-1,2,4-thiadiazol-5-yl)furan-3-carboxamide]", "IC50": 13.6}, {"smiles": "CC(=O)Cc1nsc(NC(=O)c2cc(-c3cccc(OC(F)(F)F)c3)oc2C)n1", "note": "[Compound A-13, 2-Methyl-N-(3-(2-oxopropyl)-1,2,4-thiadiazol-5-yl)-5-(3-(trifluoromethoxy)phenyl)furan-3-carboxamide]", "IC50": 0.48}, {"smiles": "Cc1sc(-c2cccc(OC(F)(F)F)c2)cc1C(=O)Nc1nc(CC(C)N2CCOCC2)ns1", "note": "(stereo not drawn) [Compound C-17, 2-Methyl-N-(3-(2-morpholinopropyl)-1,2,4-thiadiazol-5-yl)-5-(3-(trifluoromethoxy)phenyl)thiophene-3-carboxamide]", "IC50": 6.17}, {"smiles": "CCN(CC)Cc1nsc(NC(=O)c2cc(-c3cccc(OC)c3)sc2C)n1", "note": "[Compound C-50, N-(3-((diethylamino)methyl)-1,2,4-thiadiazol-5-yl)-5-(3-methoxyphenyl)-2-methyl-thiophene-3-carboxamide]", "IC50": 12.5}, {"smiles": "Cc1sc(-c2cccc(OC(F)F)c2)cc1C(=O)Nc1nc(CC(C)N2CCN(C)CC2)ns1", "note": "(stereo not drawn) [Compound C-19, 5-(3-(Difluoromethoxy)phenyl)-2-methyl-N-(3-(2-(4-methylpiperazin-1-yl)propyl)-1,2,4-thiadiazol-5-yl)thiophene-3-carboxamide]", "IC50": 15.4}, {"smiles": "CC(=O)Cc1nsc(NC(=O)c2coc(-c3cccc(C#N)c3)c2)n1", "note": "[Compound B-2, 5-(3-Cyanophenyl)-N-(3-(2-oxopropyl)-1,2,4-thiadiazol-5-yl)furan-3-carboxamide]", "IC50": 54.9}, {"smiles": "O=C(Nc1nc(CN2CCCC2)ns1)c1cc(-c2cccc(C(F)(F)F)c2)co1", "note": "[Compound G-24, N-(3-(pyrrolidin-1-ylmethyl)-1,2,4-thiadiazol-5-yl)-4-(3-(trifluoromethyl)phenyl)furan-2-carboxamide]", "IC50": 24.2}, {"smiles": "CC(=O)Cc1nsc(NC(=O)c2cc(-c3cccc(OC(F)(F)F)c3)oc2C(F)(F)F)n1", "note": "[Compound E-4, N-(3-(2-oxopropyl)-1,2,4-thiadiazol-5-yl)-5-(3-(trifluoromethoxy)phenyl)-2-(trifluoro-methyl)furan-3-carboxamide]", "IC50": 0.55}, {"smiles": "COc1cccc(-c2coc(C(=O)Nc3nc(CC(C)=O)ns3)c2)c1", "note": "[Compound G-3, 4-(3-Methoxyphenyl)-N-(3-(2-oxopropyl)-1,2,4-thiadiazol-5-yl)furan-2-carboxamide]", "IC50": 33.6}, {"smiles": "CC(=O)Cc1nsc(NC(=O)c2cc(-c3cccc(N)c3)oc2C)n1", "note": "[Compound A-24, 5-(3-Aminophenyl)-2-methyl-N-(3-(2-oxopropyl)-1,2,4-thiadiazol-5-yl)furan-3-carboxamide]", "IC50": 1.62}, {"smiles": "CC(=O)Cc1nsc(NC(=O)c2csc(-c3cccc(OC(F)F)c3)c2)n1", "note": "[Compound D-5, 5-(3-(Difluoromethoxy)phenyl)-N-(3-(2-oxopropyl)-1,2,4-thiadiazol-5-yl)thiophene-3-carboxamide]", "IC50": 40}, {"smiles": "O=C(Nc1nc(CCl)ns1)c1cc(-c2cccc(C(F)(F)F)c2)co1", "note": "[Compound G-19, N-(3-(chloromethyl)-1,2,4-thiadiazol-5-yl)-4-(3-(trifluoromethyl)phenyl)furan-2-carboxamide]", "IC50": 31.4}, {"smiles": "CC(O)(Cc1nsc(NC(=O)c2csc(-c3cccc(C(F)(F)F)c3)c2)n1)C(F)(F)F", "note": "[Compound D-25, N-(3-(3,3,3-trifluoro-2-hydroxy-2-methylpropyl)-1,2,4-thiadiazol-5-yl)-5-(3-(trifluoro-methyl)phenyl)thiophene-3-carboxamide]", "IC50": 33}, {"smiles": "CC(=O)Cc1nsc(NC(=O)c2cc(-c3cccc([N+](=O)[O-])c3)oc2C)n1", "note": "[Compound A-2, 2-Methyl-5-(3-nitrophenyl)-N-(3-(2-oxopropyl)-1,2,4-thiadiazol-5-yl)furan-3-carboxamide]", "IC50": 0.04}, {"smiles": "CCN(CC)Cc1nsc(NC(=O)c2cc(-c3cccc(OC(F)(F)F)c3)oc2C)n1", "note": "[Compound A-123, N-(3-((diethylamino)methyl)-1,2,4-thiadiazol-5-yl)-2-methyl-5-(3-(trifluoromethoxy)phenyl)furan-3-carboxamide]", "IC50": 0.59}, {"smiles": "CC(Cc1nsc(NC(=O)c2cc(-c3cccc(OC(F)(F)F)c3)oc2C(F)(F)F)n1)N1CCOCC1", "note": "(stereo not drawn) [Compound E-10, N-(3-(2-morpholinopropyl)-1,2,4-thiadiazol-5-yl)-5-(3-(trifluoromethoxy)phenyl)-2-(trifluoromethyl)furan-3-carboxamide]", "IC50": 0.99}, {"smiles": "[2H]c1c(-c2cccc(C(F)(F)F)c2)oc(C)c1C(=O)Nc1nc(CC(C)=O)ns1", "note": "[Compound A-34, 2-Methyl-N-(3-(2-oxopropyl)-1,2,4-thiadiazol-5-yl)-5-(3-(trifluoromethyl)phenyl)furan-4-d-3-carboxamide]", "IC50": 0.04}, {"smiles": "CC(=O)Cc1nsc(NC(=O)c2cc(-c3cccc(OC(F)(F)F)c3)co2)n1", "note": "[Compound G-4, N-(3-(2-oxopropyl)-1,2,4-thiadiazol-5-yl)-4-(3-(trifluoromethoxy)phenyl)furan-2-carboxamide]", "IC50": 11.6}, {"smiles": "CC(F)(F)Cc1nsc(NC(=O)c2cc(-c3cccc(OC(F)(F)F)c3)co2)n1", "note": "[Compound G-17, N-(3-(2,2-difluoropropyl)-1,2,4-thiadiazol-5-yl)-4-(3-(trifluoromethoxy)phenyl)furan-2-carboxamide]", "IC50": 23}, {"smiles": "CC(=O)Cc1nsc(NC(=O)c2cc(-c3cccc(C#N)c3)oc2C(F)(F)F)n1", "note": "[Compound E-2, 5-(3-Cyanophenyl)-N-(3-(2-oxopropyl)-1,2,4-thiadiazol-5-yl)-2-(trifluoromethyl)furan-3-carboxamide]", "IC50": 2.23}]}]}
